ChEMBL document CHEMBL1201862, “PubChem BioAssay data set” (2004)
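96-well plates; 48 h exposure; 5 concentrations. Endpoints by linear interpolation between flanking doses. Not reached: highest tested concentration assigned. GI50 = concentration required for 50% inhibition of growth.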 Activity calls are given as the source filed them. Rule as the data show it: active = GI50 up to about 1.1 µM and inactive = higher.

Legend:
Assay in all cases: NCI anticancer screen, dose series, 48 h
[1] = test system: A549
[2] = test system: ACHN
[3] = test system: BT-549
[4] = test system: CAKI-1
[5] = test system: CCRF-CEM
[6] = test system: DLD-1
[7] = test system: DMS-273
[8] = test system: HCC 2998
[9] = test system: HCT-116
[10] = test system: HCT-15
[11] = test system: HL-60
[12] = test system: HOP-18
[13] = test system: HOP-92
[14] = test system: HT-29
[15] = test system: Hs-578T
[16] = test system: K562
[17] = test system: KM-20L2
[18] = test system: KM12
[19] = test system: LOX IMVI
[20] = test system: LXFL 529
[21] = test system: M14
[22] = test system: M19-MEL
[23] = test system: MCF7
[24] = test system: MDA-MB-435
[25] = test system: MOLT-4
[26] = test system: Malme-3M
[27] = test system: NCI-H23
[28] = test system: NCI-H460
[29] = test system: NCI-H522
[30] = test system: NCI/ADR-RES
[31] = test system: OVCAR-4
[32] = test system: OVCAR-5
[33] = test system: OVCAR-8
[34] = test system: PC-3
[35] = test system: RXF 393
[36] = test system: SF-268
[37] = test system: SF-295
[38] = test system: SF-539
[39] = test system: SK-MEL-2
[40] = test system: SK-MEL-5
[41] = test system: SN12C
[42] = test system: SNB-19
[43] = test system: SNB-75
[44] = test system: SNB-78
[45] = test system: T47D
[46] = test system: UACC-257
[47] = test system: UACC-62
[48] = test system: UO-31
[49] = test system: 786-0
[50] = test system: COLO 205
[51] = test system: DMS-114
[52] = test system: EKVX
[53] = test system: HOP-62
[54] = test system: IGROV-1
[55] = test system: OVCAR-3
[56] = test system: RPMI-8226
[57] = test system: SK-MEL-28
[58] = test system: SW-620
[59] = test system: TK-10
[60] = test system: U-251
[61] = test system: XF498

Measured: GI50

CC1CC[P+](c2ccccc2)(c2ccccc2)c2c1ccc1ccccc21 (centres undefined)
inactive: [1] 4.83 µM | [2] 9.62 µM | [4] 6.75 µM | [5] 3.78 µM | [6] 3.74 µM | [8] 9.48 µM | [9] 1.96 µM | [11] 1.28 µM | [12] 2.52 µM | [13] 1.45 µM | [14] 2.28 µM | [15] 1.46 µM | [17] 2.5 µM | [18] 1.59 µM | [19] 2.33 µM | [21] 3.53 µM | [22] 1.69 µM | [23] 2.26 µM | [24] 1.52 µM | [25] 5.66 µM | [26] 5.96 µM | [27] 1.57 µM | [28] 2 µM | [30] > 100 µM | [31] 6.76 µM | [32] 5.26 µM | [33] 1.84 µM | [35] 9.08 µM | [36] 4.35 µM | [37] 3.5 µM | [38] 5.26 µM | [39] 1.63 µM | [41] 2.49 µM | [42] 2.44 µM | [43] 2.37 µM | [44] 2.67 µM | [47] 2.51 µM | [48] 15.9 µM
active: [3] 0.764 µM | [7] 0.405 µM | [16] 0.589 µM | [20] 0.83 µM | [29] 0.946 µM | [34] 0.948 µM | [40] 0.83 µM | [45] 0.883 µM | [46] 0.385 µM
31.9 µM: [10]

C#Cc1cccc(N2C(=O)c3c(c(-c4ccccc4)c(-c4ccc(Cc5ccc(-c6c(-c7ccccc7)c7c(c(-c8ccccc8)c6-c6ccccc6)C(=O)N(c6cccc(C#C)c6)C7=O)cc5)cc4)c(-c4ccccc4)c3-c3ccccc3)C2=O)c1
7.85 µM: [10]
inactive: [49] 30.2 µM | [1] 24.4 µM | [2] 15.9 µM | [5] 26.6 µM | [50] 27 µM | [6] 32.9 µM | [51] 20.5 µM | [7] 52.2 µM | [52] 51.2 µM | [8] 44.7 µM | [9] 21 µM | [11] 22.3 µM | [53] 25.8 µM | [13] 2.79 µM | [14] 51.4 µM | [54] 12.6 µM | [16] 16.9 µM | [17] 16.2 µM | [18] 25.6 µM | [20] 14.9 µM | [21] 16.9 µM | [22] 23.1 µM | [25] 14.3 µM | [26] 45 µM | [27] 31.2 µM | [28] 43.2 µM | [29] > 100 µM | [55] 44.3 µM | [31] > 100 µM | [32] > 100 µM | [33] 31.5 µM | [56] 24.9 µM | [35] 15.9 µM | [36] 15 µM | [37] 37.8 µM | [38] 21.2 µM | [57] > 100 µM | [39] 57.9 µM | [40] 21.9 µM | [41] 20.7 µM | [42] 40 µM | [43] 16.3 µM | [44] 47.4 µM | [58] 33 µM | [59] 17.9 µM | [60] 33 µM | [46] 47.3 µM | [47] 5.6 µM | [48] 36.7 µM | [61] 22.8 µM
